Data as given in ChEMBL document CHEMBL2021770, “Potent and Selective Inhibitors of Long Chain l-2-Hydroxy Acid Oxidase Reduced Blood Pressure in DOCA Salt-Treated Rats” (ACS Med Chem Lett, 2011).
Active and inactive are the calls of the source. No cut-off for these calls is given here.

Key:
2-Hydroxyacid oxidase 2 = target: T1, 2-Hydroxyacid oxidase 2 (Rattus norvegicus, UniProt Q07523); assay: Inhibition of rat His6-tagged Hao2 expressed in Escherichia coli BL21/DE3 using 2-hydroxyoctanoic acid as substrate measured every 10 secs by spectrophotometry
T1 sequence (Q07523 whole entry): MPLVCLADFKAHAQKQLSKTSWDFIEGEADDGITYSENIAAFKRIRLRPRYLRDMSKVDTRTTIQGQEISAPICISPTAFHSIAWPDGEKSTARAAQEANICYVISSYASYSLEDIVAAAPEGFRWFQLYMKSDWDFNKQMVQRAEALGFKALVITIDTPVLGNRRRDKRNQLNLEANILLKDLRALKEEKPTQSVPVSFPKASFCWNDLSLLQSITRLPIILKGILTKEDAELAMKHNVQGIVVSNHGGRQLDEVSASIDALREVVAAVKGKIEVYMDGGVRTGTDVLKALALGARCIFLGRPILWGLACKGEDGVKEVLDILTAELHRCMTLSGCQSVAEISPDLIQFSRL

Rattus norvegicus [1] = assay: Antihypertensive activity in DOCA-salt treated Wistar rat assessed as decrease in systolic blood pressure at 3 mg/kg, po bid administered 29 days after DOCA-salt-challenge for 15 days 12 to 15 hrs post-last dose by plethysmography; assay type: functional
Rattus norvegicus [2] = assay: Antihypertensive activity in DOCA-salt treated Wistar rat assessed as decrease in systolic blood pressure at 30 mg/kg, po bid administered 29 days after DOCA-salt-challenge for 15 days 12 to 15 hrs post-last dose by plethysmography; assay type: functional, Artery
HepG2 = assay: Cytotoxicity against human HepG2 cells; assay type: cell-based
Rattus norvegicus [3] = assay: Ex-vivo inhibition of Hao2 in DOCA-salt treated Wistar rat kidney using [3H]-2-hydroxyoctanate as substrate assessed as inhibition of [3H]-H2O production at 30 mg/kg, po bid administered 29 days post DOCA-challenge for 15 days measured 1 hr post-last dose by microbeta counting relative to vehicle-treated control; assay type: functional
Rattus norvegicus [4] = organism: Rattus norvegicus; assay: Selectivity ratio of IC50 for rat Hao1 to IC50 for rat Hao2
[5] = target: Hydroxycarboxylic acid receptor 2 (Homo sapiens) (UniProt Q8TDS4); assay: Agonist activity at human GPR109a at 10 uM; assay type: functional
Sequence of Hydroxycarboxylic acid receptor 2 (Homo sapiens) (Q8TDS4 whole entry): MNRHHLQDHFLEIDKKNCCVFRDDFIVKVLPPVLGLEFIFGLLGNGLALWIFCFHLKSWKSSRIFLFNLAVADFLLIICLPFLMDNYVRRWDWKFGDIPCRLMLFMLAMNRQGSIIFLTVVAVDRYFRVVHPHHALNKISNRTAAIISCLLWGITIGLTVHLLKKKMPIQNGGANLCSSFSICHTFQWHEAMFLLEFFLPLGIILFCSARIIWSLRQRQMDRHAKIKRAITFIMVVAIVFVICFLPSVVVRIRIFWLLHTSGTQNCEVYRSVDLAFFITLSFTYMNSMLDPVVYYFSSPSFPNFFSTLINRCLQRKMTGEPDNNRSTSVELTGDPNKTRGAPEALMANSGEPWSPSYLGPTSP

Rattus norvegicus [6] = assay: Ex-vivo inhibition of Hao2 in DOCA-salt treated Wistar rat kidney using [3H]-2-hydroxyoctanate as substrate assessed as inhibition of [3H]-H2O production at 30 mg/kg, po bid administered 29 days post DOCA-challenge for 15 days measured 12 to 15 hrs post-last dose by microbeta counting relative to vehicle-treated control; assay type: functional
[7] = target: T2, 2-Hydroxyacid oxidase 1 (Rattus norvegicus) (UniProt B0BNF9); assay: Inhibition of rat His6-tagged Hao1 expressed in Escherichia coli BL21/DE3 using glcolic acid as substrate at 10 uM measured every 10 secs by spectrophotometry
T2 sequence (whole entry): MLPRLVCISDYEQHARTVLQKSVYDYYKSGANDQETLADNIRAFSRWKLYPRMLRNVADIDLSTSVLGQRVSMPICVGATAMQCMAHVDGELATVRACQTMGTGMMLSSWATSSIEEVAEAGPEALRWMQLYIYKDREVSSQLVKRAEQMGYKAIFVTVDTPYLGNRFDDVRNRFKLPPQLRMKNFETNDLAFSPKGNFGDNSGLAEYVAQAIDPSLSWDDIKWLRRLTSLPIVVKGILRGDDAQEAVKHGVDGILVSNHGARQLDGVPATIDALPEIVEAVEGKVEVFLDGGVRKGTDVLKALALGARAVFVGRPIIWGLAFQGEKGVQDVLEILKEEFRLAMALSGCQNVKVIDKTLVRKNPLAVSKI

Rattus norvegicus [8] = assay: Ex-vivo inhibition of Hao2 in DOCA-salt treated Wistar rat kidney using [3H]-2-hydroxyoctanate as substrate assessed as inhibition of [3H]-H2O production at 3 mg/kg, po bid administered 29 days post DOCA-challenge for 15 days measured 12 to 15 hrs post-last dose by microbeta counting relative to vehicle-treated control; assay type: functional
Rattus norvegicus [9] = assay: Ex-vivo inhibition of Hao2 in DOCA-salt treated Wistar rat kidney using [3H]-2-hydroxyoctanate as substrate assessed as inhibition of [3H]-H2O production at 3 mg/kg, po bid administered 29 days post DOCA-challenge for 15 days measured 1 hr post-last dose by microbeta counting relative to vehicle-treated control; assay type: functional
Kidney [10] = assay: Drug uptake in Wistar rat kidney at 3 mg/kg, po bid administered for 15 days measured 1 hr post-last dose; assay type: ADME, organism-based; design: dose 3 mg/kg, route oral; settings: in vivo
[11] = Elimination half life in rat at 1 mg/kg, iv; assay type: ADME, organism-based; design: dose 1 mg/kg, route intravenous; settings: in vivo, read-out: beta t1/2 (converted)
Cytochrome P450 3A4 = Cytochrome P450 3A4 (Homo sapiens, UniProt P08684); assay: Inhibition of CYP3A4; assay type: ADME
Sequence of Cytochrome P450 3A4 (P08684 whole entry): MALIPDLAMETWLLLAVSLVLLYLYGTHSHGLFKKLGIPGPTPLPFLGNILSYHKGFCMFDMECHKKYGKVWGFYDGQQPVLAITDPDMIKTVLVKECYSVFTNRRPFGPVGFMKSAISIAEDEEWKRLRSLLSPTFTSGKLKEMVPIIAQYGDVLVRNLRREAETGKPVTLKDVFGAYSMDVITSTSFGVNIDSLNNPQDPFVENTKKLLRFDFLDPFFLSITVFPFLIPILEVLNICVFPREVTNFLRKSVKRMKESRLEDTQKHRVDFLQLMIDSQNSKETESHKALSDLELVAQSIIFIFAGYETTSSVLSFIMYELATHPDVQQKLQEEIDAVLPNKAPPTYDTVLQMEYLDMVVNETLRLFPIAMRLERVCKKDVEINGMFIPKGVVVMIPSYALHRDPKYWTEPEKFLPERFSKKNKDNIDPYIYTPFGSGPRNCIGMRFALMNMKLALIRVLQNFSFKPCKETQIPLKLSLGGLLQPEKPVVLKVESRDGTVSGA

[12] = AUC (0 to 8 hrs) in rat at 10 mg/kg, po; assay type: ADME, organism-based; design: time < 8 hr, dose 10 mg/kg, route oral; settings: plasma
[13] = AUC (0 to 8 hrs) in rat at 1 mg/kg, iv; assay type: ADME, organism-based; design: time < 8 hr, dose 1 mg/kg, route intravenous; settings: plasma
Cytochrome P450 2C9 = Cytochrome P450 2C9 (Homo sapiens, UniProt P11712); assay: Inhibition of CYP2C9; assay type: ADME
Sequence of Cytochrome P450 2C9 (P11712 whole entry): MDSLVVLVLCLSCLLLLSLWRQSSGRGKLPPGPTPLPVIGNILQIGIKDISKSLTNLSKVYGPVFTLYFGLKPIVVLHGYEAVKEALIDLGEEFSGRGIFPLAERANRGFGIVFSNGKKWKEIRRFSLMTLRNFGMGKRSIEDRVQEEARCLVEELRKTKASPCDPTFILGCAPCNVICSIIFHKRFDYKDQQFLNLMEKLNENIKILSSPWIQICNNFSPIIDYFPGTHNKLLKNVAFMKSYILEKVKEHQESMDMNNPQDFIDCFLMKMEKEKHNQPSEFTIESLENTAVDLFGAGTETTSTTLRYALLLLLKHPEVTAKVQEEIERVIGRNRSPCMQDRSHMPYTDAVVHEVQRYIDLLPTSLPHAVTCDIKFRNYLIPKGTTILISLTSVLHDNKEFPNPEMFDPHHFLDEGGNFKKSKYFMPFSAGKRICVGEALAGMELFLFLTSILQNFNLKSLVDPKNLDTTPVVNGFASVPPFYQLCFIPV

[14] = Drug metabolism in rat liver microsomes assessed as metabolic rate per 0.125 mg/mL protein; assay type: ADME, Microsome
[15] = Volume of distribution at steady state in rat at 1 mg/kg, iv; assay type: ADME, organism-based; design: dose 1 mg/kg, route intravenous; settings: in vivo, read-out: Vdss
[16] = Oral bioavailability in rat at 10 mg/kg; assay type: ADME, organism-based; settings: in vivo
[17] = Cmax in rat at 10 mg/kg, po; assay type: ADME, organism-based; design: dose 10 mg/kg, route oral; settings: in vivo
Kidney [18] = assay: Drug uptake in Wistar rat kidney at 30 mg/kg, po bid administered for 15 days measured 1 hr post-last dose; assay type: ADME, organism-based; design: dose 30 mg/kg, route oral; settings: in vivo
Cytochrome P450 2C19 = Cytochrome P450 2C19 (Homo sapiens, UniProt P33261); assay: Inhibition of CYP2C19; assay type: ADME
Sequence of Cytochrome P450 2C19 (P33261 whole entry): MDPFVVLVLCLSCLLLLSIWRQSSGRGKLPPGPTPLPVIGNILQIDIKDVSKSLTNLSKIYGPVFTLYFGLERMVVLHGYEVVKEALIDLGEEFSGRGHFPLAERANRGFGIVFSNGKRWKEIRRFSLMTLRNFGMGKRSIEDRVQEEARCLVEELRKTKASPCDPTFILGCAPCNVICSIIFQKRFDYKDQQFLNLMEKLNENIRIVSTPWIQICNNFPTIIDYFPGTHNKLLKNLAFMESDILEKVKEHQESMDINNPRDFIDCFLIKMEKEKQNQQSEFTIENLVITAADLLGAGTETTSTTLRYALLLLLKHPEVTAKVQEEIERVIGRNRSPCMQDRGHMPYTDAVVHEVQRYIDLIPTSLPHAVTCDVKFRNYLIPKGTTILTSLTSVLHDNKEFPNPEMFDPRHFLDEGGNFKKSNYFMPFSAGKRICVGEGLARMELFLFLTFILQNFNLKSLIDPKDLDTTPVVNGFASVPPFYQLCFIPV

Plasma [19] = assay: Plasma concentration in Wistar rat at 30 mg/kg, po bid administered for 15 days measured 12 to 15 hrs post-last dose; assay type: ADME, organism-based; design: dose 30 mg/kg, route oral; settings: in vivo
[20] = Plasma protein binding in rat; assay type: ADME, cell-free; settings: read-out: PPB
[21] = Plasma concentration in Wistar rat at 3 mg/kg, po bid administered for 15 days measured 1 hr post-last dose; assay type: ADME, organism-based; design: dose 3 mg/kg, route oral
Plasma [22] = assay: Plasma concentration in Wistar rat at 3 mg/kg, po bid administered for 15 days measured 12 to 15 hrs post-last dose; assay type: ADME, organism-based; design: dose 3 mg/kg, route oral; settings: in vivo
Cytochrome P450 1A2 = target: T3, Cytochrome P450 1A2 (Homo sapiens, UniProt P05177); assay: Inhibition of CYP1A2; assay type: ADME
T3 sequence (P05177 whole entry): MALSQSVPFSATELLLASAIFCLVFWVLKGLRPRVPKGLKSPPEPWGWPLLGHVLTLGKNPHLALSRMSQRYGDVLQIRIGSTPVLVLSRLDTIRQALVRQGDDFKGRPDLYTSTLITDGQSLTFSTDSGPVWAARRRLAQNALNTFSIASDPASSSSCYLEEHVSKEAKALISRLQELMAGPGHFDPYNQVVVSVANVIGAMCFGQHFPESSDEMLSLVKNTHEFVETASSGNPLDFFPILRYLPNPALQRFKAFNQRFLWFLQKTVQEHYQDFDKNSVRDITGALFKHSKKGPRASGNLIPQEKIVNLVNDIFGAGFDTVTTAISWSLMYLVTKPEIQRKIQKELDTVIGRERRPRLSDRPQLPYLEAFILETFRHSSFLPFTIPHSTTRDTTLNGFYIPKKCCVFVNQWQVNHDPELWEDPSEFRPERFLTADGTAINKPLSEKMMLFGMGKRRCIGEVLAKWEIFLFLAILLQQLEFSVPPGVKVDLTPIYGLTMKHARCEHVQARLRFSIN

[23] = target: T4, Nuclear receptor subfamily 1 group I member 2 (Homo sapiens, UniProt O75469); assay: Induction of PXR at 100 uM
T4 sequence (O75469 whole entry): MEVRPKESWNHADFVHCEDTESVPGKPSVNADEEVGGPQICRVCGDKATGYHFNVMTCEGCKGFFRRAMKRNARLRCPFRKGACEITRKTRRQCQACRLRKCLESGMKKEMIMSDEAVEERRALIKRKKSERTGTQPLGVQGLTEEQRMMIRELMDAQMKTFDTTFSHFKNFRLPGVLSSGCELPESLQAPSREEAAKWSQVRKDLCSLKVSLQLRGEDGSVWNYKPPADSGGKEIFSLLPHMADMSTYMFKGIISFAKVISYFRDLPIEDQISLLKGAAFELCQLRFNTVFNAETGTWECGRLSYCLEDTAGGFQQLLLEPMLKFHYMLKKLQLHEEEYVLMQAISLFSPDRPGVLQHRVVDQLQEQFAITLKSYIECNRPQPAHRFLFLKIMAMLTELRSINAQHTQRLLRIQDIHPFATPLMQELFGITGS

Cytochrome P450 2D6 = Cytochrome P450 2D6 (Homo sapiens, UniProt P10635); assay: Inhibition of CYP2D6; assay type: ADME
Sequence of Cytochrome P450 2D6 (P10635 whole entry): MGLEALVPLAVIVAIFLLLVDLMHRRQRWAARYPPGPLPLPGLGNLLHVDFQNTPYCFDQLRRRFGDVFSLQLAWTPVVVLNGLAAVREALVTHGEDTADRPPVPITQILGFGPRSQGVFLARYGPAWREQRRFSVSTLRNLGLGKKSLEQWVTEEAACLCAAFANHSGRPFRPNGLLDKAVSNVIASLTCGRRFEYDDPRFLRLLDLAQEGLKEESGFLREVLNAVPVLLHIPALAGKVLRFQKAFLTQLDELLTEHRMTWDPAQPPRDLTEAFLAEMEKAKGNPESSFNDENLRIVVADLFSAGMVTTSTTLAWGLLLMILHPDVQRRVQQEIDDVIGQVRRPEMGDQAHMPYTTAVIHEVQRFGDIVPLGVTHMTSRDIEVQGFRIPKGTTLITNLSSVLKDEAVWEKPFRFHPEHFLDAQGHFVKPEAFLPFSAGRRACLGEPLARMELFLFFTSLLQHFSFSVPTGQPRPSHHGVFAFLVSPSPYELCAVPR

Kidney [24] = assay: Drug uptake in Wistar rat kidney at 3 mg/kg, po bid administered for 15 days measured 12 to 15 hrs post-last dose; assay type: ADME, organism-based; design: dose 3 mg/kg, route oral; settings: in vivo
[25] = Clearance in rat at 1 mg/kg, iv; assay type: ADME, organism-based; design: dose 1 mg/kg, route intravenous; settings: in vivo
[26] = Plasma concentration in Wistar rat at 30 mg/kg, po bid administered for 15 days measured 1 hr post-last dose; assay type: ADME, organism-based; design: dose 30 mg/kg, route oral
[27] = Elimination half life in rat at 10 mg/kg, po; assay type: ADME, organism-based; design: dose 10 mg/kg, route oral; settings: in vivo, read-out: beta t1/2 (converted)
[28] = Induction of cytochrome P450 at 10 uM; assay type: ADME
[29] = Tmax in rat at 10 mg/kg, po; assay type: ADME, organism-based; design: dose 10 mg/kg, route oral; settings: in vivo

Cc1[nH]nc(C(=O)O)c1CCc1ccc(-c2ccccc2)cc1
IC50 (2-Hydroxyacid oxidase 2): 0.91 µM

Cc1n[nH]c(C(=O)O)c1Cc1cc2ccccc2s1
Activity (Rattus norvegicus [1]): 27 mmHg
Activity (Rattus norvegicus [2]): 33 mmHg
IC50 (HepG2): > 100 µM
inhibition in vivo at 30 mg/kg (Rattus norvegicus [3]): 93%
Ratio IC50 (Rattus norvegicus [4]): 150
Activity [5]: inactive
inhibition in vivo at 30 mg/kg (Rattus norvegicus [6]): 42%
inhibition [7]: inactive
inhibition in vivo at 3 mg/kg (Rattus norvegicus [8]): 0%
inhibition in vivo at 3 mg/kg (Rattus norvegicus [9]): 75%

Cc1[nH]nc(C(=O)O)c1Cc1cc2ccccc2s1
Drug uptake (Kidney [10]): 34 nmol/g
half-life [11]: 3.7 h
IC50 (Cytochrome P450 3A4): > 10 µM
AUC(0-t) at 8 h [12]: 517 µM·h
AUC(0-t) at 8 h [13]: 97 µM·h
IC50 (Cytochrome P450 2C9): > 10 µM
Drug metabolism [14]: 0.02 nmol/min/mg
Vd [15]: 0.14 L/kg
bioavailability [16]: 53%
Cmax [17]: 134 µM
Drug uptake (Kidney [18]): 113 nmol/g
IC50 (Cytochrome P450 2C19): > 10 µM
concentration (Plasma [19]): 86 µM
fraction unbound [20]: < 0.01
concentration at 1 h [21]: 48 µM
concentration (Plasma [22]): 12 µM
IC50 (Cytochrome P450 1A2): > 10 µM
Activity [23]: Not Active
IC50 (2-Hydroxyacid oxidase 2): 0.3 µM
IC50 (Cytochrome P450 2D6): > 10 µM
Drug uptake (Kidney [24]): 13 nmol/g
clearance [25]: 0.52 mL/min/kg
concentration at 1 h [26]: 157 µM
half-life [27]: 4.1 h
Activity [28]: Not Active
Tmax [29]: 0.25 h

Cc1[nH]nc(C(=O)O)c1CCc1ccccc1
IC50 (2-Hydroxyacid oxidase 2): 4.27 µM
